Activity calls are given as the source filed them.
How the values were obtained:
[1] = target: NADPH oxidase 1 (Homo sapiens, UniProt Q9Y5S8); format: functional, cell-based;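 also: Cell-based assay with luminescence read-out, IC50 derived from inhibitor dose-response curves; intracellular ROS from endogenous NOX1 in intact HT29 colon cancer cells; potency of inhibitors that lower the ROS luminescence signal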
[2] = target: Neuropeptide Y receptor type 2 (Homo sapiens, UniProt P49146); test: Fluorescence-based cell-based high-throughput dose response assay for agonists of NPY-Y2. [Related pubchem assays: 1703 (Screening assay (CNGC inhibitors).), 1359 (Screening assay (NPY-Y2 potentiators or agonists).), 1304 (Screening assay (NPY-Y1 potentiators or agonists).), 1710 (Screening assay (NPY-Y2 agonists).), 1791 (Summary AID.)]; format: functional
Chain of Neuropeptide Y receptor type 2 (P49146 whole entry): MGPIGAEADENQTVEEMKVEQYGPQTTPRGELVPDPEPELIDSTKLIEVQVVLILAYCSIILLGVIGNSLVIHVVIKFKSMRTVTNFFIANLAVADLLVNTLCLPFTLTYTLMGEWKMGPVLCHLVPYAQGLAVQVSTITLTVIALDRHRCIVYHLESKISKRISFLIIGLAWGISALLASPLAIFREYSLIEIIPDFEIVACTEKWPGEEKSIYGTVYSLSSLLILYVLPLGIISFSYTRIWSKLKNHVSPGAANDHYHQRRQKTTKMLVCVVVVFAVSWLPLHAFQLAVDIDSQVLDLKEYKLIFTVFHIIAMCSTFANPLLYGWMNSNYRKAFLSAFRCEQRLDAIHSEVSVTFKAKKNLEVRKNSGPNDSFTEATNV

[3] = target: T1, Aminopeptidase N (Plasmodium falciparum FcB1/Columbia, UniProt O96935); test: P. falciparum M1AAP inhibitors, biochemical, fluorogenic H-Leu-NHMec substrate, 1536-well (AID 1445); design: species or system Plasmodium falciparum 3D7, 3D7
T1 sequence (O96935 whole entry): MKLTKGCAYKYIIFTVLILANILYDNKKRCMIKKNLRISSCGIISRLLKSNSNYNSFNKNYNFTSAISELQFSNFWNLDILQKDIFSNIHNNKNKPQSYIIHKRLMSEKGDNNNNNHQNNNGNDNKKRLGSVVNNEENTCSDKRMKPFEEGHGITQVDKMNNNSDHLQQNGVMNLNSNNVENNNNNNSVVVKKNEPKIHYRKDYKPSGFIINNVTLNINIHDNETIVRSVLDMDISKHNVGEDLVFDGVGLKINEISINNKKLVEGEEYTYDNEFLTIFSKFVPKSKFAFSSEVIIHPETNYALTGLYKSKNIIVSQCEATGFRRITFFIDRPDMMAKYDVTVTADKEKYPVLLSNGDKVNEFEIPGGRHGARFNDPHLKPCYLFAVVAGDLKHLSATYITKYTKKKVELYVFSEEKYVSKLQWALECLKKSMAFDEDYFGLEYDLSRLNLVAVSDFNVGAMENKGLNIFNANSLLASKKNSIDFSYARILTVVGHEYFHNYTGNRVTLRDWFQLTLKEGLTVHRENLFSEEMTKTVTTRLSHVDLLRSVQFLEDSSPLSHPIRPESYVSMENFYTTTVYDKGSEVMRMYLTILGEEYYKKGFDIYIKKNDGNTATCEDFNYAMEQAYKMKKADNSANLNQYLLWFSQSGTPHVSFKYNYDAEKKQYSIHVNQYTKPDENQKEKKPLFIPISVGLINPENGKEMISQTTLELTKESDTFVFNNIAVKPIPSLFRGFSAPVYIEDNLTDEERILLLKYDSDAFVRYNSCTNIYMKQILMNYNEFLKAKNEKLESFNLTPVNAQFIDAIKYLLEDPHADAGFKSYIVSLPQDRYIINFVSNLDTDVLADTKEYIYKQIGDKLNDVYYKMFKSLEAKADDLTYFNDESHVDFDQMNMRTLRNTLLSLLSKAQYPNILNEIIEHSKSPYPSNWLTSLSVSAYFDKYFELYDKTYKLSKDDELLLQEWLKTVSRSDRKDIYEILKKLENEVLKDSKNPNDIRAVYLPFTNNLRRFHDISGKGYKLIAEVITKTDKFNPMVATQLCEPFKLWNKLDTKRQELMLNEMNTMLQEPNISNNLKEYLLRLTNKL

[4] = target: Neuropeptide Y receptor type 1 (Homo sapiens, UniProt P25929); test: Fluorescence-based counterscreen for agonists of NPY-Y2: cell-based high-throughput dose response assay for agonists of NPY-Y1.; format: functional
Chain of Neuropeptide Y receptor type 1 (P25929 whole entry, the tested form may be a part): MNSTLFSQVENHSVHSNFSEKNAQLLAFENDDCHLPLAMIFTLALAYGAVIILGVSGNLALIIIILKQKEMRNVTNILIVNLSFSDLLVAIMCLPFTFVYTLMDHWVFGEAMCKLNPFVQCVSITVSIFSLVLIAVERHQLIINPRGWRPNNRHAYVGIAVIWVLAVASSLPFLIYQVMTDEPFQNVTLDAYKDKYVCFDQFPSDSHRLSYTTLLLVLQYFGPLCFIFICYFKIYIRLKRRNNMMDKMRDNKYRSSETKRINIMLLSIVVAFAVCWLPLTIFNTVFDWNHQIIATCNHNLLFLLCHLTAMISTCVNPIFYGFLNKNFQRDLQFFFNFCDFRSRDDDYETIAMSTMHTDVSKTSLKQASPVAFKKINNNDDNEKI

[5] = HIV-1 Env-mediated cell fusion inhibitors, dose response, CCR5-tropic Env (AID 2279); format: functional
[6] = target: T2, Probable nicotinate-nucleotide adenylyltransferase (Staphylococcus aureus (strain N315), UniProt P65502); format: functional, Staphylococcus aureus subsp. aureus N315; details: read-out: IC50_Mean;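 as to IC50 Mean: confirmatory dose-response retesting of NadD inhibitor hits first found in an ultra-high-throughput screen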
T2 sequence (P65502 whole entry): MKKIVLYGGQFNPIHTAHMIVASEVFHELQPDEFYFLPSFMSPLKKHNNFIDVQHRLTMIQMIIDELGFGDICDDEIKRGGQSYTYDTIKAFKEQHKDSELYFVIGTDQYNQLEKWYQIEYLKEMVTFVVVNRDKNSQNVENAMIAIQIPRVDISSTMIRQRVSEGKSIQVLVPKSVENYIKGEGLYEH

[7] = target: T2, Probable nicotinate-nucleotide adenylyltransferase; format: functional, Staphylococcus aureus subsp. aureus N315
[8] = test system: HEK293; test: Fluorescence-based counterscreen for potentiators or agonists of NPY-Y2: cell-based high-throughput dose response assay to identify inhibitors of cyclic nucleotide gated ion channel (CNGC) activity. In this assay, the parental HEK293 cell line transfected with a cyclic-nucleotide gated ion channel (CNGC)-based cAMP sensor is used to measure inhibition of isoproterenol-induced CNGC activity by test compound.; format: functional; details: Homo sapiens;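 also: stimulus is 1 µM isoproterenol at EC100 plus PDE inhibitor Ro 20-1724 at 25 µM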
[9] = test system: Vero; test: Vero cell cytotoxicity, cytotoxicity control for flavivirus capping enzyme inhibitors (AID 588742); format: functional; details: Chlorocebus sabaeus
[10] = cells; format: functional, cell-based
[11] = inhibitors of firefly luciferase expression or activity, dose response, H4 neuroglioma cells, luminescence (AID 1990); format: functional, cell-based
[12] = Shn3 3'UTR reporter inhibitors, dose response, cell-based, Clone20 osteoblasts, firefly luciferase, cherry-picked (AID 624132); format: functional;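 also: firefly luciferase luminescence from reporter carrying the Shn3 3'UTR in osteoblasts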
[13] = HepG2 cell cytotoxicity, dose response, cytotoxicity control for Shn3 inhibitor project, CellTiter-Glo, cherry-picked (AID 624134); format: functional, cell-based
[14] = inhibitors of SNCA 5'UTR-driven reporter translation, confirmation, H4 neuroglioma cells, luminescence (AID 1988); format: functional, cell-based
[15] = C. albicans growth with fluconazole, confirmation, fluorescence, retest (AID 2467); format: functional, cell-based
[16] = NIH-3T3 fibroblast cytotoxicity, dose response, cytotoxicity control, cell-based, fluorescence, Alamar Blue, secondary assay (AID 2327); format: functional;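 also: NIH-3T3 mouse fibroblasts cultured with fluconazole at 8 µg/mL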
[17] = Luminescence Cell-Based Dose Response HTS to Identify Inhibitors of 5'UTR Stem-Loop Driven Prion Protein mRNA Translation in H4 Neuroglioblastoma Cells. [Related pubchem assays: 1827 (Project Summary), 1813 (Primary HTS)]; format: functional
[18] = cytotoxicity toward NIH3T3 fibroblasts, dose response, counter-screen, cell-based, ATP luminescence, mouse fibroblasts (AID 2010); format: functional;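 also: cells exposed to compound for about 90 hours before reading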
[19] = inhibitors of intracellular T. cruzi replication, confirmation, NIH3T3 host cells, beta-gal luminescence (AID 2044); format: functional, cell-based;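 also: intracellular parasites grown in NIH/3T3 mouse fibroblasts as host cells; luminescent beta-galactosidase reporter signal from transgenic T. cruzi replicating inside host cells; inhibitors lower the luminescence signal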
[20] = test system: INS1; test: beta cell apoptosis inhibitors, cytokine rescue, dose response, luminescence, retest (AID 449756); format: functional, cell-based; details: Rattus norvegicus;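 also: cell death triggered by IL-1 beta plus TNF-alpha plus IFN-gamma mixture; protective hits raise ATP signal compared with cytokine alone wells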
[21] = target: T3, Mannose-6-phosphate isomerase (Homo sapiens, UniProt P34949); test: inhibitors of human PMI, primary screen, biochemical, fluorescence intensity, coupled assay (AID 1209)
T3 sequence (P34949 whole entry): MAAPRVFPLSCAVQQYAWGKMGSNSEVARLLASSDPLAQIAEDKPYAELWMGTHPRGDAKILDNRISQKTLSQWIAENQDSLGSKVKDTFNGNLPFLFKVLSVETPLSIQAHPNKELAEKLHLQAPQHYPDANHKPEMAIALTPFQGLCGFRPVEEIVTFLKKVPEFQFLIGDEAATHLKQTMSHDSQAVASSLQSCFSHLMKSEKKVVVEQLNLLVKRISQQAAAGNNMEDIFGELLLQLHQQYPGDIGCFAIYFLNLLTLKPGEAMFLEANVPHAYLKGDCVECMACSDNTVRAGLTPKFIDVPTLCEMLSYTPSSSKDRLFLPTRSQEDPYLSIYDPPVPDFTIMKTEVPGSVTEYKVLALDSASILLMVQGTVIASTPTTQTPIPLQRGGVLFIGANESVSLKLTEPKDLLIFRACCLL

[22] = control 3'UTR Renilla luciferase suppression, dose response, counter-screen for Shn3 inhibitor project, cell-based, Clone20-Shn3RL, cherry-picked (AID 624133); format: functional
[23] = target: T4, Heat shock factor protein 1 (Mus musculus, UniProt P38532); test: inhibition of MG132-induced HSE-luciferase signal, confirmation, cell-based, NIH3T3, luminescence, dose retest (AID 2382); format: functional;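 also: NIH3T3 fibroblasts with HSF1-driven luciferase reporter stressed by proteasome inhibitor MG132; luminescence from HSF1-driven luciferase expression after 8 hours of MG132 stress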
T4 sequence (P38532 whole entry): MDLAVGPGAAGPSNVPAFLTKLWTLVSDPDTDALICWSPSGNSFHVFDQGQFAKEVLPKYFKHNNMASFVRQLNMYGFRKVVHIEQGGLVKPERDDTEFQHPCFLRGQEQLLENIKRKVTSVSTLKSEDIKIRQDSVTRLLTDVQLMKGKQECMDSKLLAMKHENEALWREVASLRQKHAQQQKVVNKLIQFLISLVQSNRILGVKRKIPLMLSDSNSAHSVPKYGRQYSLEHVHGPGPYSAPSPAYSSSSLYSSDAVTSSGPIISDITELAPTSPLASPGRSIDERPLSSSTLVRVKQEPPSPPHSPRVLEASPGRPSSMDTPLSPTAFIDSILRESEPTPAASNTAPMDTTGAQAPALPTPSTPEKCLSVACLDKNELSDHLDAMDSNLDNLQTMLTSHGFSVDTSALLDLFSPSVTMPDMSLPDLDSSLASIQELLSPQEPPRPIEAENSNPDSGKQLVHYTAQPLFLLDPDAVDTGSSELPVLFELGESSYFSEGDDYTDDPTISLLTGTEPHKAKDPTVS

[24] = cells; format: functional, cell-based; remark: listed apart in the source
[25] = target: Nonstructural protein 1 (Influenza A virus, UniProt Q194T2); format: functional, Influenza A virus (A/California/07/2009(H1N1))
Chain of Nonstructural protein 1 (Q194T2 whole entry): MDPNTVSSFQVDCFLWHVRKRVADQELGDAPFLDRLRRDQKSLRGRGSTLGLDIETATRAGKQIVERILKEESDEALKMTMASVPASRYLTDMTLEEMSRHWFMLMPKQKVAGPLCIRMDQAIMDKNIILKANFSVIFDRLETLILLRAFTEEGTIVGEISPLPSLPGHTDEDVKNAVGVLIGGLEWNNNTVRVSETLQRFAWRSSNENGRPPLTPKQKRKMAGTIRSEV

[26] = target: Mothers against decapentaplegic homolog 3 (Homo sapiens, UniProt P84022); test: Smad3 binding inhibitors, lysate ELISA, dose response, cell lysate, secondary confirmation, chemiluminescent ELISA, HEK293 lysate (AID 1058); format: functional
Chain of Mothers against decapentaplegic homolog 3 (P84022 whole entry): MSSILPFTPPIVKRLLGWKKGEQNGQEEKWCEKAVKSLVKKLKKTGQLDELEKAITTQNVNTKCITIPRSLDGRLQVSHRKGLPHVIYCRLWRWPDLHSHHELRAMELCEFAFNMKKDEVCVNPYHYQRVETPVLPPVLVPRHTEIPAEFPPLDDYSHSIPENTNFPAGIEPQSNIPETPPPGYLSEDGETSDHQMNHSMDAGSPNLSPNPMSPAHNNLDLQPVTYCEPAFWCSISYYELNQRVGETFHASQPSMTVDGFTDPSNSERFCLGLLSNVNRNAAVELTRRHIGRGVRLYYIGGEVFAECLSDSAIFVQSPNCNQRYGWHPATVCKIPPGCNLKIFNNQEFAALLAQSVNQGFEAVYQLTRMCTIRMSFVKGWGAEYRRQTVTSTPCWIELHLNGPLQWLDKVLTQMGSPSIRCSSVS

Chain of NADPH oxidase 1 (Q9Y5S8 whole entry): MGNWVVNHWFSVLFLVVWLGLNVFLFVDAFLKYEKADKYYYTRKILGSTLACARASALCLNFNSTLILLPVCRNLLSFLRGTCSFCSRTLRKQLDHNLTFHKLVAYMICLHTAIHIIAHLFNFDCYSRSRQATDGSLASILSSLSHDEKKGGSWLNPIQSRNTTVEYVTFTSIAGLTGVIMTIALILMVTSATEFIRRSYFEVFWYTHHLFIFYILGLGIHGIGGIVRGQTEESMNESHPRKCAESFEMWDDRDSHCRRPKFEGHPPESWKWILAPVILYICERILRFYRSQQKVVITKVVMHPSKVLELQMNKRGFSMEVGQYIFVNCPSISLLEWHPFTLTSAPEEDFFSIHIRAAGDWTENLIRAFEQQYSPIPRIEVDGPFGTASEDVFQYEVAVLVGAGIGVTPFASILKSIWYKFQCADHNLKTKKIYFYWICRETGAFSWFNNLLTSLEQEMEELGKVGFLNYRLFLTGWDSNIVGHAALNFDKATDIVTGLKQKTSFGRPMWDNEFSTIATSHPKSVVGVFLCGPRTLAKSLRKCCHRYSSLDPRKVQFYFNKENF

Question: Which IC50 [1] does the source give for `COc1cc(-c2nc3c4ccccc4c4ccccc4c3[nH]2)ccc1O` here?
Answer: 1.15 µM (active)

Question: Which results are given for `COc1ccccc1NS(=O)(=O)c1cccc(N2C(=O)/C(=C\Nc3ccccc3C(=O)O)c3ccccc3C2=O)c1`?
Answer: EC50 [2]: 20.1 µM (not active); IC50 [3]: 30.4 µM (active); EC50 [4]: > 11.8 µM (not active); IC50 [5]: 19.6 µM (active); IC50 [6]: 22.2 µM (active); IC50 [7]: 2.81 µM (active); EC50 [8]: 13.4 µM (not active); CC50 [9]: > 40 µM (active)

Question: What does the source list for `Oc1c(CN2CCOCC2)cc(COCc2ccccc2)c2cccnc12`?
Answer: EC50 [10]: > 350 µM (not active); EC50 [11]: 4.97 µM (active); AC50 [12]: 1.28 µM (active); AC50 [13]: 2.13 µM (active); EC50 [14]: 4.24 µM (active); EC50 [15]: 1.28 µM (active); EC50 [16]: > 160 µM (inactive); EC50 [17]: 5.43 µM (active); EC50 [18]: 28 µM (active); EC50 [19]: 1.26 µM (active); AC50 [20]: 2.39 µM (active); IC50 [21]: 25.7 µM (active); AC50 [22]: 3.15 µM (active); EC50 [23]: 36.3 µM (active); EC50 [24]: 6.33 µM (active); IC50 [25]: 4.95 µM (active)

Question: For `CC1NC(C(=O)O)Cc2cc(O)c(O)cc21` (stereo unspecified), which IC50 [26] is on record?
Answer: > 50 µM (not active)

From ChEMBL document CHEMBL1201862, “PubChem BioAssay data set” (2004)
